Results on seven molecules are retold here after ChEMBL document CHEMBL3390848, “Affinity selection and sequence-activity relationships of HIV-1 membrane fusion inhibitors directed at the drug-resistant variants” (Medchemcomm, 2010).

For test [1], the system named is Human immunodeficiency virus 1. The experiment in a line: Thermal stability of HIV1 envelope glycoprotein gp41 His-tagged N-terminal heptad repeat N54-drug complex assessed as thermal unfolding transition state by measuring molar ellipticity at 4 to 90 degC by circular dichroic spectra analysis.
In test [2] the test system is Human immunodeficiency virus 1. The experiment in a line: Antiviral activity against HIV1 NL4-3 harboring gp41 D36G mutant infected in human HeLa cells expressing CD4-LTR-beta-gal assessed as inhibition of viral replication after 48 hrs by MAGI assay. The format is functional, organism-based.
Test [3] has as its system Human immunodeficiency virus 1. The experiment in a line: Binding affinity to HIV1 His-tagged N-terminal heptad repeat of envelope glycoprotein gp41 assessed as recovery of N54-drug complex after 2 hrs by LC-MS analysis. Further details: concentration or dose not given beside the values.

Residues, ends and D or L forms follow the SMILES beside them.

`CC[C@H](C)[C@H](NC(=O)[C@H](CC(C)C)NC(=O)[C@H](CCC(=O)O)NC(=O)[C@H](CCC(=O)O)NC(=O)[C@@H](NC(=O)[C@H](CC(C)C)NC(=O)[C@H](CO)NC(=O)[C@@H](NC(=O)[C@H](Cc1ccc(O)cc1)NC(C)=O)[C@@H](C)O)[C@@H](C)CC)C(=O)N[C@@H](CCCCN)C(=O)N[C@@H](CCCCN)C(=O)N[C@@H](CO)C(=O)N[C@@H](CCC(=O)O)C(=O)N[C@@H](CCC(=O)O)C(=O)N[C@H](C(=O)N[C@@H](CCC(N)=O)C(=O)N[C@@H](CCCCN)C(=O)N[C@@H](CCCCN)C(=O)N[C@@H](CC(N)=O)C(=O)N[C@@H](CCC(=O)O)C(=O)N[C@@H](CCC(=O)O)C(=O)N[C@@H](CCC(=O)O)C(=O)N[C@@H](CC(C)C)C(=O)N[C@@H](CCCCN)C(=O)N[C@@H](CCCCN)C(=O)N[C@@H](CC(C)C)C(=O)N[C@@H](CCC(=O)O)C(=O)N[C@@H](CCC(=O)O)C(=O)N[C@@H](Cc1c[nH]c2ccccc12)C(=O)N[C@@H](C)C(=O)N[C@@H](CCCCN)C(=O)N[C@@H](CCCCN)C(=O)N[C@@H](Cc1c[nH]c2ccccc12)C(=O)N[C@@H](CC(N)=O)C(=O)N[C@@H](Cc1c[nH]c2ccccc12)C(=O)N[C@@H](Cc1ccccc1)C(N)=O)C(C)C` (Ac-YTSLIEELIKKSEEVQKKNEEELKKLEEWAKKWNWF-NH2): in test [1], the Tm (commonly the temperature at which the thermal transition is half complete) came out at 70.5 °C. For the same molecule, the EC50 (commonly the midpoint of the concentration-response curve) in test [2] was determined as 2.9 nM. Also, the Activity in test [3] is 6.1%.

Take `CC[C@H](C)[C@H](NC(=O)[C@H](CC(C)C)NC(=O)[C@H](CCC(=O)O)NC(=O)[C@H](CCC(=O)O)NC(=O)[C@@H](NC(=O)[C@H](CC(C)C)NC(=O)[C@H](CO)NC(=O)[C@@H](NC(=O)[C@H](Cc1ccc(O)cc1)NC(C)=O)[C@@H](C)O)[C@@H](C)CC)C(=O)N[C@@H](CCCCN)C(=O)N[C@@H](CCCCN)C(=O)N[C@@H](CO)C(=O)N[C@@H](CCC(=O)O)C(=O)N[C@@H](CCC(=O)O)C(=O)N[C@@H](CC(N)=O)C(=O)N[C@@H](CCC(N)=O)C(=O)N[C@@H](CCCCN)C(=O)N[C@@H](CCCCN)C(=O)N[C@@H](CC(N)=O)C(=O)N[C@@H](CCC(=O)O)C(=O)N[C@@H](CCC(=O)O)C(=O)N[C@@H](CCC(=O)O)C(=O)N[C@@H](CC(C)C)C(=O)N[C@@H](CCCCN)C(=O)N[C@@H](CCCCN)C(=O)N[C@@H](CC(C)C)C(=O)N[C@@H](CCC(=O)O)C(=O)N[C@@H](CCC(=O)O)C(=O)N[C@@H](Cc1c[nH]c2ccccc12)C(=O)N[C@@H](C)C(=O)N[C@@H](CCCCN)C(=O)N[C@@H](CCCCN)C(=O)N[C@@H](Cc1c[nH]c2ccccc12)C(=O)N[C@@H](CC(N)=O)C(=O)N[C@@H](Cc1c[nH]c2ccccc12)C(=O)N[C@@H](Cc1ccccc1)C(N)=O` (Ac-YTSLIEELIKKSEENQKKNEEELKKLEEWAKKWNWF-NH2): the melting temperature (Tm) in test [1] is 69 °C. The EC50 in test [2] stood at 3.6 nM. Besides, the Activity in test [3] was 4.4%.

As to `CC[C@H](C)[C@H](NC(=O)[C@H](CC(C)C)NC(=O)[C@H](CCC(=O)O)NC(=O)[C@H](CCC(=O)O)NC(=O)[C@@H](NC(=O)[C@H](CC(C)C)NC(=O)[C@H](CO)NC(=O)[C@@H](NC(=O)[C@H](Cc1ccc(O)cc1)NC(C)=O)[C@@H](C)O)[C@@H](C)CC)C(=O)N[C@@H](CCCCN)C(=O)N[C@@H](CCCCN)C(=O)N[C@H](C(=O)N[C@@H](CCC(=O)O)C(=O)N[C@@H](CCC(=O)O)C(=O)N[C@@H](CCC(N)=O)C(=O)N[C@@H](CCC(N)=O)C(=O)N[C@@H](CCCCN)C(=O)N[C@@H](CCCCN)C(=O)N[C@@H](CC(N)=O)C(=O)N[C@@H](CCC(=O)O)C(=O)N[C@@H](CCC(=O)O)C(=O)N[C@@H](CCC(=O)O)C(=O)N[C@@H](CC(C)C)C(=O)N[C@@H](CCCCN)C(=O)N[C@@H](CCCCN)C(=O)N[C@@H](CC(C)C)C(=O)N[C@@H](CCC(=O)O)C(=O)N[C@@H](CCC(=O)O)C(=O)N[C@@H](Cc1c[nH]c2ccccc12)C(=O)N[C@@H](C)C(=O)N[C@@H](CCCCN)C(=O)N[C@@H](CCCCN)C(=O)N[C@@H](Cc1c[nH]c2ccccc12)C(=O)N[C@@H](CC(N)=O)C(=O)N[C@@H](Cc1c[nH]c2ccccc12)C(=O)N[C@@H](Cc1ccccc1)C(N)=O)C(C)C` (Ac-YTSLIEELIKKVEEQQKKNEEELKKLEEWAKKWNWF-NH2), the Tm in test [1] is 76 °C. The EC50 in test [2] came out at 0.3 nM. In addition, the Activity in test [3] was determined as 9.4%.

Regarding `CC[C@H](C)[C@H](NC(=O)[C@H](CC(C)C)NC(=O)[C@H](CCC(=O)O)NC(=O)[C@H](CCC(=O)O)NC(=O)[C@@H](NC(=O)[C@H](CC(C)C)NC(=O)[C@H](CO)NC(=O)[C@@H](NC(=O)[C@H](Cc1ccc(O)cc1)NC(C)=O)[C@@H](C)O)[C@@H](C)CC)C(=O)N[C@@H](CCCCN)C(=O)N[C@@H](CCCCN)C(=O)N[C@@H](Cc1ccccc1)C(=O)N[C@@H](CCC(=O)O)C(=O)N[C@@H](CCC(=O)O)C(=O)N[C@@H](CCC(N)=O)C(=O)N[C@@H](CCC(N)=O)C(=O)N[C@@H](CCCCN)C(=O)N[C@@H](CCCCN)C(=O)N[C@@H](CC(N)=O)C(=O)N[C@@H](CCC(=O)O)C(=O)N[C@@H](CCC(=O)O)C(=O)N[C@@H](CCC(=O)O)C(=O)N[C@@H](CC(C)C)C(=O)N[C@@H](CCCCN)C(=O)N[C@@H](CCCCN)C(=O)N[C@@H](CC(C)C)C(=O)N[C@@H](CCC(=O)O)C(=O)N[C@@H](CCC(=O)O)C(=O)N[C@@H](Cc1c[nH]c2ccccc12)C(=O)N[C@@H](C)C(=O)N[C@@H](CCCCN)C(=O)N[C@@H](CCCCN)C(=O)N[C@@H](Cc1c[nH]c2ccccc12)C(=O)N[C@@H](CC(N)=O)C(=O)N[C@@H](Cc1c[nH]c2ccccc12)C(=O)N[C@@H](Cc1ccccc1)C(N)=O` (Ac-YTSLIEELIKKFEEQQKKNEEELKKLEEWAKKWNWF-NH2), the Tm in test [1] is 64.6 °C. Also, the EC50 in test [2] was 2.8 nM. The Activity in test [3] worked out at 5.8%.

As for `CC[C@H](C)[C@H](NC(=O)[C@H](CC(C)C)NC(=O)[C@H](CCC(=O)O)NC(=O)[C@H](CCC(=O)O)NC(=O)[C@@H](NC(=O)[C@H](CC(C)C)NC(=O)[C@H](CO)NC(=O)[C@@H](NC(=O)[C@H](Cc1ccc(O)cc1)NC(C)=O)[C@@H](C)O)[C@@H](C)CC)C(=O)N[C@@H](CCCCN)C(=O)N[C@@H](CCCCN)C(=O)N[C@@H](CO)C(=O)N[C@@H](CCC(=O)O)C(=O)N[C@@H](CCC(=O)O)C(=O)N[C@@H](Cc1ccc(O)cc1)C(=O)N[C@@H](CCC(N)=O)C(=O)N[C@@H](CCCCN)C(=O)N[C@@H](CCCCN)C(=O)N[C@@H](CC(N)=O)C(=O)N[C@@H](CCC(=O)O)C(=O)N[C@@H](CCC(=O)O)C(=O)N[C@@H](CCC(=O)O)C(=O)N[C@@H](CC(C)C)C(=O)N[C@@H](CCCCN)C(=O)N[C@@H](CCCCN)C(=O)N[C@@H](CC(C)C)C(=O)N[C@@H](CCC(=O)O)C(=O)N[C@@H](CCC(=O)O)C(=O)N[C@@H](Cc1c[nH]c2ccccc12)C(=O)N[C@@H](C)C(=O)N[C@@H](CCCCN)C(=O)N[C@@H](CCCCN)C(=O)N[C@@H](Cc1c[nH]c2ccccc12)C(=O)N[C@@H](CC(N)=O)C(=O)N[C@@H](Cc1c[nH]c2ccccc12)C(=O)N[C@@H](Cc1ccccc1)C(N)=O` (Ac-YTSLIEELIKKSEEYQKKNEEELKKLEEWAKKWNWF-NH2), in test [1], the Tm came out at 67.7 °C. The EC50 in test [2] was found to be 2.3 nM. Besides, in test [3], the Activity was 4.9%.

For `CC[C@H](C)[C@H](NC(=O)[C@H](CC(C)C)NC(=O)[C@H](CCC(=O)O)NC(=O)[C@H](CCC(=O)O)NC(=O)[C@@H](NC(=O)[C@H](CC(C)C)NC(=O)[C@H](CO)NC(=O)[C@@H](NC(=O)[C@H](Cc1ccc(O)cc1)NC(C)=O)[C@@H](C)O)[C@@H](C)CC)C(=O)N[C@@H](CCCCN)C(=O)N[C@@H](CCCCN)C(=O)N[C@@H](CCCNC(=N)N)C(=O)N[C@@H](CCC(=O)O)C(=O)N[C@@H](CCC(=O)O)C(=O)N[C@@H](CCC(N)=O)C(=O)N[C@@H](CCC(N)=O)C(=O)N[C@@H](CCCCN)C(=O)N[C@@H](CCCCN)C(=O)N[C@@H](CC(N)=O)C(=O)N[C@@H](CCC(=O)O)C(=O)N[C@@H](CCC(=O)O)C(=O)N[C@@H](CCC(=O)O)C(=O)N[C@@H](CC(C)C)C(=O)N[C@@H](CCCCN)C(=O)N[C@@H](CCCCN)C(=O)N[C@@H](CC(C)C)C(=O)N[C@@H](CCC(=O)O)C(=O)N[C@@H](CCC(=O)O)C(=O)N[C@@H](Cc1c[nH]c2ccccc12)C(=O)N[C@@H](C)C(=O)N[C@@H](CCCCN)C(=O)N[C@@H](CCCCN)C(=O)N[C@@H](Cc1c[nH]c2ccccc12)C(=O)N[C@@H](CC(N)=O)C(=O)N[C@@H](Cc1c[nH]c2ccccc12)C(=O)N[C@@H](Cc1ccccc1)C(=O)O` (Ac-YTSLIEELIKKREEQQKKNEEELKKLEEWAKKWNWF-OH), the Tm in test [1] worked out at 49.4 °C. The EC50 in test [2] was determined as 320 nM. The Activity in test [3] was 1.5%.

Consider `CC[C@H](C)[C@H](NC(=O)[C@H](CC(C)C)NC(=O)[C@H](CCC(=O)O)NC(=O)[C@H](CCC(=O)O)NC(=O)[C@@H](NC(=O)[C@H](CC(C)C)NC(=O)[C@H](CO)NC(=O)[C@@H](NC(=O)[C@H](Cc1ccc(O)cc1)NC(C)=O)[C@@H](C)O)[C@@H](C)CC)C(=O)N[C@@H](CCCCN)C(=O)N[C@@H](CCCCN)C(=O)N[C@@H](CO)C(=O)N[C@@H](CCC(=O)O)C(=O)N[C@@H](CCC(=O)O)C(=O)N[C@@H](CO)C(=O)N[C@@H](CCC(N)=O)C(=O)N[C@@H](CCCCN)C(=O)N[C@@H](CCCCN)C(=O)N[C@@H](CC(N)=O)C(=O)N[C@@H](CCC(=O)O)C(=O)N[C@@H](CCC(=O)O)C(=O)N[C@@H](CCC(=O)O)C(=O)N[C@@H](CC(C)C)C(=O)N[C@@H](CCCCN)C(=O)N[C@@H](CCCCN)C(=O)N[C@@H](CC(C)C)C(=O)N[C@@H](CCC(=O)O)C(=O)N[C@@H](CCC(=O)O)C(=O)N[C@@H](Cc1c[nH]c2ccccc12)C(=O)N[C@@H](C)C(=O)N[C@@H](CCCCN)C(=O)N[C@@H](CCCCN)C(=O)N[C@@H](Cc1c[nH]c2ccccc12)C(=O)N[C@@H](CC(N)=O)C(=O)N[C@@H](Cc1c[nH]c2ccccc12)C(=O)N[C@@H](Cc1ccccc1)C(N)=O` (Ac-YTSLIEELIKKSEESQKKNEEELKKLEEWAKKWNWF-NH2), for which, in test [1], the Tm was determined as 66.7 °C. In addition, the 50% effective concentration (EC50) in test [2] was 4.6 nM. Also, the Activity in test [3] was 3.2%.
